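Results reflect a 48-hour exposure of cells in 96-well plates to compound at five concentrations. The concentration for 50% growth inhibition is given as GI50.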 The source made the active and inactive calls. Cut-off read from the data, not from the text of the source: active = GI50 up to about 1.1 µM and inactive = higher.
Columns and labels:
Assay in all cases: DTP human tumour cell line panel, 48 h
A549 = tested on: A549
ACHN = tested on: ACHN
DU-145 = tested on: DU-145
HCT-15 = tested on: HCT-15
IGROV-1 = tested on: IGROV-1
KM12 = tested on: KM12
MDA-MB-231 = tested on: MDA-MB-231
MDA-N = tested on: MDA-N
Malme-3M = tested on: Malme-3M
NCI-H522 = tested on: NCI-H522
RPMI-8226 = tested on: RPMI-8226
SK-MEL-2 = tested on: SK-MEL-2
SK-OV-3 = tested on: SK-OV-3
SNB-75 = tested on: SNB-75
SW-620 = tested on: SW-620
TK-10 = tested on: TK-10
UACC-257 = tested on: UACC-257
UO-31 = tested on: UO-31
Hs-578T = tested on: Hs-578T

Compound	GI50 (A549)	GI50 (ACHN)	GI50 (DU-145)	GI50 (HCT-15)	GI50 (IGROV-1)	GI50 (KM12)	GI50 (MDA-MB-231)	GI50 (MDA-N)	GI50 (Malme-3M)	GI50 (NCI-H522)	GI50 (RPMI-8226)	GI50 (SK-MEL-2)	GI50 (SK-OV-3)	GI50 (SNB-75)	GI50 (SW-620)	GI50 (TK-10)	GI50 (UACC-257)	GI50 (UO-31)	GI50 (Hs-578T)
COC(=O)[C@@H](NC(=O)c1ccc(CNC(=O)/C(C)=C/c2ccccc2)cc1)C(C)C	> 100 µM (inactive)	> 100 µM (inactive)	> 100 µM (inactive)	> 100 µM	> 100 µM (inactive)	36.1 µM (inactive)	> 100 µM (inactive)	66.5 µM (inactive)	> 100 µM (inactive)	83.9 µM (inactive)	69.8 µM (inactive)	51.1 µM (inactive)	> 100 µM (inactive)	> 100 µM (inactive)	> 100 µM (inactive)	> 100 µM (inactive)	14.2 µM (inactive)	> 100 µM (inactive)	–
ClC1=NSSC1(Cl)Cl	> 100 µM (inactive)	20.4 µM (inactive)	> 100 µM (inactive)	18.4 µM	61 µM (inactive)	71.1 µM (inactive)	30.8 µM (inactive)	27.7 µM (inactive)	28.6 µM (inactive)	7.6 µM (inactive)	23.5 µM (inactive)	> 100 µM (inactive)	–	41.7 µM (inactive)	20.7 µM (inactive)	–	51.8 µM (inactive)	26.7 µM (inactive)	–
CC[C@]1(Cc2ccc(OC)c(OC)c2)[C@@H]2C[C@@H](C3OCCO3)ON2O[C@H](OC2CCCC2(c2ccccc2)c2ccccc2)[C@@H]1OC(C)=O (some centres undefined)	24 µM (inactive)	18.1 µM (inactive)	26.6 µM (inactive)	14.5 µM	23.3 µM (inactive)	15.6 µM (inactive)	44.3 µM (inactive)	36.1 µM (inactive)	–	15.1 µM (inactive)	–	15.7 µM (inactive)	43.1 µM (inactive)	24 µM (inactive)	33 µM (inactive)	45.3 µM (inactive)	19.6 µM (inactive)	20.6 µM (inactive)	–
C=C(C)[C@H]1CC(=O)[C@@]2(C)C[C@H]3O[C@]3(C)CC/C=C(\C)CC[C@H]12	58.1 µM (inactive)	42.9 µM (inactive)	99.5 µM (inactive)	47.2 µM	73.1 µM (inactive)	16 µM (inactive)	84.1 µM (inactive)	49 µM (inactive)	44.6 µM (inactive)	37.1 µM (inactive)	33.4 µM (inactive)	45.1 µM (inactive)	63.2 µM (inactive)	58.3 µM (inactive)	42.3 µM (inactive)	22.2 µM (inactive)	19.4 µM (inactive)	57.1 µM (inactive)	–
COc1ccc(Nc2nc3ccc(C(F)(F)F)cc3nc2-c2ccccc2)cc1OC	39.5 µM (inactive)	28.6 µM (inactive)	–	15.9 µM	60.7 µM (inactive)	21.5 µM (inactive)	–	–	51.9 µM (inactive)	24.7 µM (inactive)	–	57.5 µM (inactive)	> 100 µM (inactive)	> 100 µM (inactive)	68.4 µM (inactive)	> 10 µM (inactive)	38.5 µM (inactive)	15.5 µM (inactive)	–
Clc1ccc(-c2cc(-c3cc4cc(Br)ccc4nc3Cl)on2)cc1	13.2 µM (inactive)	13.8 µM (inactive)	18.8 µM (inactive)	16.2 µM	12.9 µM (inactive)	15.5 µM (inactive)	–	11.8 µM (inactive)	18.8 µM (inactive)	10.2 µM (inactive)	15.4 µM (inactive)	9.71 µM (inactive)	18.9 µM (inactive)	25.1 µM (inactive)	10.4 µM (inactive)	–	13 µM (inactive)	17.3 µM (inactive)	22.8 µM (inactive)
CC(C)c1c(O)c(O)c2c(c1O)C(=O)C(O)=C1C(C)(C)CCC[C@@]12C	3.6 µM (inactive)	2.96 µM (inactive)	4.13 µM (inactive)	3.66 µM	3.73 µM (inactive)	3.44 µM (inactive)	2.92 µM (inactive)	–	3.88 µM (inactive)	3.56 µM (inactive)	1.26 µM (inactive)	3.76 µM (inactive)	3.81 µM (inactive)	3.05 µM (inactive)	3.29 µM (inactive)	3.86 µM (inactive)	2.67 µM (inactive)	2.32 µM (inactive)	4.31 µM (inactive)
CCCCSc1nsc(N(C(=O)c2ccccc2)C(=O)c2ccccc2)n1	36.5 µM (inactive)	49.1 µM (inactive)	33.8 µM (inactive)	30.3 µM	41.1 µM (inactive)	33.5 µM (inactive)	–	30.9 µM (inactive)	26.9 µM (inactive)	25.4 µM (inactive)	21.6 µM (inactive)	26.4 µM (inactive)	31.4 µM (inactive)	25.1 µM (inactive)	41.4 µM (inactive)	36.4 µM (inactive)	27.3 µM (inactive)	19.5 µM (inactive)	31.2 µM (inactive)
Cc1ccc(C2(N3CCCC3)OC(C)(C)c3cccc4cccc2c34)cc1 (centres undefined)	11 µM (inactive)	15.8 µM (inactive)	16.9 µM (inactive)	15.6 µM	15.9 µM (inactive)	27.9 µM (inactive)	–	16.2 µM (inactive)	18.1 µM (inactive)	12.9 µM (inactive)	22.3 µM (inactive)	14.7 µM (inactive)	15.6 µM (inactive)	13.5 µM (inactive)	16 µM (inactive)	16.8 µM (inactive)	16.9 µM (inactive)	15.1 µM (inactive)	15.6 µM (inactive)
NC1(CCCCCCCCCCC(=O)O)CNCCNCCNCCNC1	57.5 µM (inactive)	55.3 µM (inactive)	–	–	26.9 µM (inactive)	48.9 µM (inactive)	–	–	78.3 µM (inactive)	55.5 µM (inactive)	37.4 µM (inactive)	52.5 µM (inactive)	63.8 µM (inactive)	–	44.8 µM (inactive)	31.2 µM (inactive)	> 100 µM (inactive)	> 100 µM (inactive)	–
O=C(Sc1c(-c2ccccc2)c(=O)n(-c2ccccc2)c(=S)n1-c1ccccc1)c1cccs1	> 100 µM (inactive)	81.8 µM (inactive)	> 100 µM (inactive)	34.7 µM	49.7 µM (inactive)	> 100 µM (inactive)	–	70 µM (inactive)	86.3 µM (inactive)	29.2 µM (inactive)	24.4 µM (inactive)	53 µM (inactive)	35 µM (inactive)	29.6 µM (inactive)	24.6 µM (inactive)	> 100 µM (inactive)	60.3 µM (inactive)	> 100 µM (inactive)	> 100 µM (inactive)
C1=N\c2ccc(cc2)/N=C\c2ccccc2OCc2cccc(n2)COc2ccccc2/1	> 100 µM (inactive)	61.4 µM (inactive)	> 100 µM (inactive)	> 100 µM	75.2 µM (inactive)	> 100 µM (inactive)	78.3 µM (inactive)	> 100 µM (inactive)	> 100 µM (inactive)	> 100 µM (inactive)	–	> 100 µM (inactive)	> 100 µM (inactive)	–	> 100 µM (inactive)	> 100 µM (inactive)	> 100 µM (inactive)	> 100 µM (inactive)	–
Cc1cc(C2(O)C=C(C(C)(C)C)C(=O)C(C(C)(C)C)=C2)c(C)cc1C1(O)C=C(C(C)(C)C)C(=O)C(C(C)(C)C)=C1	> 100 µM (inactive)	> 100 µM (inactive)	> 100 µM (inactive)	> 100 µM	> 100 µM (inactive)	> 100 µM (inactive)	> 100 µM (inactive)	> 100 µM (inactive)	> 100 µM (inactive)	> 100 µM (inactive)	> 100 µM (inactive)	> 100 µM (inactive)	> 100 µM (inactive)	> 100 µM (inactive)	> 100 µM (inactive)	> 100 µM (inactive)	> 100 µM (inactive)	> 100 µM (inactive)	–
CC(=O)O[C@H]1/C(=C/c2ccc(N(C)C)cc2)C[C@H]2[C@@H]3CC=C4C[C@@H](N5CCCC5)CC[C@]4(C)[C@H]3CC[C@]12C	> 100 µM (inactive)	> 100 µM (inactive)	> 100 µM (inactive)	> 100 µM	> 100 µM (inactive)	–	> 100 µM (inactive)	–	> 100 µM (inactive)	–	> 100 µM (inactive)	> 100 µM (inactive)	> 100 µM (inactive)	> 100 µM (inactive)	> 100 µM (inactive)	> 100 µM (inactive)	> 100 µM (inactive)	> 100 µM (inactive)	> 100 µM (inactive)
C[N+](C)(C)CCOP(=O)([O-])OCCNC(=O)c1ccc2ccccc2c1	> 100 µM (inactive)	> 100 µM (inactive)	> 100 µM (inactive)	> 100 µM	> 100 µM (inactive)	> 100 µM (inactive)	> 100 µM (inactive)	> 100 µM (inactive)	> 100 µM (inactive)	> 100 µM (inactive)	> 100 µM (inactive)	–	> 100 µM (inactive)	> 100 µM (inactive)	> 100 µM (inactive)	> 100 µM (inactive)	> 100 µM (inactive)	> 100 µM (inactive)	–
O=C1Cc2c([nH]c3ccc([N+](=O)[O-])cc23)-c2ccccc2N1 [ALSTERPAULLONE]	0.211 µM (active)	0.288 µM (active)	0.209 µM (active)	0.237 µM	0.53 µM (active)	0.165 µM (active)	1.16 µM (inactive)	0.367 µM (active)	9.08 µM (inactive)	1.22 µM (inactive)	0.438 µM (active)	0.713 µM (active)	2.3 µM (inactive)	0.804 µM (active)	0.348 µM (active)	0.757 µM (active)	1.11 µM (active)	0.109 µM (active)	–

From ChEMBL document CHEMBL1201862, “PubChem BioAssay data set” (2004)
